Reference: ChEMBL document CHEMBL5532732, “Structure-Based Rational Design of Constrained Peptides as TIM-3 Inhibitors” (ACS Med Chem Lett, 2024)
Calls of active or inactive are those of the source. The rule behind the calls is not given here. Peptide text beside a SMILES is read from it.

Assays:
[1] = Stability in human plasma assessed as compound remaining incubated for 2 hrs; assay type: ADME, cell-free; conditions: read-out: Stability
Homo sapiens = species on record: Homo sapiens; conditions: dose 250.0 nM
Description: Inhibition of recombinant human Gal-9 to biotinylated recombinant human TIM3 protein-protein interaction at 250 nM by ELISA method

[2] = Stability in rat liver microsomes assessed as half life; assay type: ADME, Microsome
[3] = Stability in simulated Intestinal fluids at pH 6.5 assessed as half life; assay type: ADME; conditions: simulated intestinal fluid
[4] = Apparent permeability across basolateral to apical in human Caco-2 cells; assay type: ADME, cell-based
[5] = Stability in simulated gastric fluids at pH 1.6 assessed as half life; assay type: ADME; conditions: simulated gastric fluid
[6] = Distribution coefficient, log D of the compound at pH 7.4 by shake flask method; assay type: physicochemical; conditions: octanol/water
[7] = Apparent permeability across apical to basolateral in human Caco-2 cells; assay type: ADME, cell-based
PBMC = assay: Induction of cytokine production in human PBMC cells assessed as increase in IFN-gamma level at 1 uM in the presence of TIM3 stimulation by ELISA method; assay type: functional, cell-based
Kasumi 1 = assay: Antiproliferative activity against human Kasumi 1 cells at 1 uM; assay type: functional, cell-based

- remaining at 2 h [1]: 95.4%
- inhibition (Homo sapiens): Active
- half-life [2]: 12.4 h
- half-life [3]: 16.4 h
- Papp B→A [4]: 12.5 ×10⁻⁶ cm/s
- half-life [5]: 8.7 h
- logD [6]: 3.52
- Papp A→B [7]: 8.16 ×10⁻⁶ cm/s
SMILES: CC[C@H](C)[C@@H]1NC(=O)[C@H](Cc2ccc(O)cc2)NC(=O)[C@H](CS)NC(=O)[C@H](CO)NC(=O)[C@H](Cc2ccccc2)NC(=O)CNC(=O)[C@H](CO)NC(=O)[C@H](CO)NC(=O)[C@H](CO)NC(=O)[C@H](CS)NC(=O)[C@H](Cc2ccc(O)cc2)NC(=O)[C@H](CO)NC1=O (cyclo(CSSSGFSCYISY))
- Activity (PBMC): Active
- Activity (Kasumi 1): inactive
